Assays:
soybean [1] = assay: Test C postemergence; assay type: in vivo, Glycine max; conditions: 10 days, 0 to 100 scale (0 no effect, 100 complete control)
Summary of the method: (§1)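 Soil-applied (pre) and foliar (post, 1–2 leaf, 2–10 cm) sprays; surfactant-containing non-phytotoxic solvent vehicle; loam/sand substrate. Readout: visual % control at 10 d, greenhouse, versus untreated.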

kochia [2] = assay: Test C postemergence; assay type: in vivo, Bassia scoparia; conditions: 10 days, 0 to 100 scale (0 no effect, 100 complete control)
Summary of the method: as §1

foxtail, giant [3] = assay: Test C preemergence; assay type: in vivo, Setaria faberi
Source text: (§2) Seeds of plant species selected from barnyardgrass (Echinochloa crusgalli), blackgrass (Alopecurus myosuroides), corn (Zea mays), foxtail, giant (giant foxtail, Setaria faberi), green foxtail (Setaria viridis), goosegrass (Eleusine indica), kochia (Bassia scoparia), oat, wild (wild oat, Avena fatua), pigweed, palmer (palmer amaranth, palmer pigweed, Amaranthus palmeri), Pigweed, Redroot (redroot pigweed, Amaranthus retroflexus), ragweed (common ragweed, Ambrosia artemisiifolia), ryegrass, Italian ([…] ryegrass, Lolium multiflorum), soybean (Glycine max), and wheat (Triticum aestivum) were planted into a blend of loam soil and sand and treated preemergence with a directed soil spray using test chemicals formulated in a non-phytotoxic solvent mixture which included a surfactant. At the same time, plants selected from these crops and weed species and also galium (catchweed bedstraw, Galium aparine) and horseweed (Erigeron canadensis) were planted in pots containing the same blend of loam soil and sand and treated with postemergence applications of test chemicals formulated in the same manner. Plants ranged in height from 2 to 10 cm and were in the one- to two-leaf stage for the postemergence treatment. Treated plants and untreated controls were maintained in a greenhouse for 10 days, after which time all treated plants were compared to untreated controls and visually evaluated for injury. Plant response ratings, summarized in Table C, are based on a 0 to 100 scale where 0 is no effect and 100 is complete control. A dash (-) response means no test result.

rice = assay: Test D flooded paddy test; assay type: in vivo, Oryza sativa; conditions: 250 g ai/ha, applied to paddy water, visual rating after 13 to 14 days, scale 0 to 100 (0 no effect, 100 complete control)
Summary of the method: (§3)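 2-leaf plants; flood 3 cm above soil; compound dosed into paddy water; greenhouse 13–14 d; visual rating vs controls, 0–100 (100 = complete control); dash = not tested.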

ryegrass, Italian [4] = assay: Test C preemergence; assay type: in vivo, Lolium multiflorum
Summary of the method: as §1

blackgrass [5] = assay: Test C preemergence; assay type: in vivo, Alopecurus myosuroides
Summary of the method: as §1

corn [6] = assay: Test C preemergence; assay type: in vivo, Zea mays
Summary of the method: as §1

sedge, umbrella = assay: Test D flooded paddy test; assay type: in vivo, Cyperus difformis; conditions: 250 g ai/ha, applied to paddy water, visual rating after 13 to 14 days, scale 0 to 100 (0 no effect, 100 complete control)
Summary of the method: as §3

barnyardgrass [7] = assay: Test C preemergence; assay type: in vivo, Echinochloa crusgalli
Summary of the method: as §1

wheat [8] = assay: Test C preemergence; assay type: in vivo, Triticum aestivum
Summary of the method: as §1

ryegrass, Italian [9] = assay: Test C postemergence; assay type: in vivo, Lolium multiflorum; conditions: 10 days, 0 to 100 scale (0 no effect, 100 complete control)
Summary of the method: as §1

ragweed [10] = assay: Test C postemergence; assay type: in vivo, Ambrosia artemisiifolia; conditions: 10 days, 0 to 100 scale (0 no effect, 100 complete control)
Summary of the method: as §1

oat, wild [11] = assay: Test C preemergence; assay type: in vivo, Avena fatua
Summary of the method: as §1

barnyardgrass [12] = assay: Test C postemergence; assay type: in vivo, Echinochloa crusgalli; conditions: 10 days, 0 to 100 scale (0 no effect, 100 complete control)
Summary of the method: as §1

pigweed, palmer [13] = assay: Test C postemergence; assay type: in vivo, Amaranthus palmeri; conditions: 10 days, 0 to 100 scale (0 no effect, 100 complete control)
Summary of the method: as §1

galium = assay: Test C postemergence; assay type: in vivo, Galium aparine; conditions: 10 days, 0 to 100 scale (0 no effect, 100 complete control)
Summary of the method: as §1

corn [14] = assay: Test C postemergence; assay type: in vivo, Zea mays; conditions: 10 days, 0 to 100 scale (0 no effect, 100 complete control)
Summary of the method: as §1

soybean [15] = assay: Test C preemergence; assay type: in vivo, Glycine max
Summary of the method: as §1

ragweed [16] = assay: Test C preemergence; assay type: in vivo, Ambrosia artemisiifolia
Summary of the method: as §1

pigweed, palmer [17] = assay: Test C preemergence; assay type: in vivo, Amaranthus palmeri
Summary of the method: as §1

horseweed = assay: Test C postemergence; assay type: in vivo, Erigeron canadensis; conditions: 10 days, 0 to 100 scale (0 no effect, 100 complete control)
Summary of the method: as §1

blackgrass [18] = assay: Test C postemergence; assay type: in vivo, Alopecurus myosuroides; conditions: 10 days, 0 to 100 scale (0 no effect, 100 complete control)
Summary of the method: as §1

wheat [19] = assay: Test C postemergence; assay type: in vivo, Triticum aestivum; conditions: 10 days, 0 to 100 scale (0 no effect, 100 complete control)
Summary of the method: as §1

kochia [20] = assay: Test C preemergence; assay type: in vivo, Bassia scoparia
Summary of the method: as §1

barnyardgrass [21] = assay: Test D flooded paddy test; assay type: in vivo, Echinochloa crus-galli; conditions: 250 g ai/ha, applied to paddy water, visual rating after 13 to 14 days, scale 0 to 100 (0 no effect, 100 complete control)
Summary of the method: as §3

oat, wild [22] = assay: Test C postemergence; assay type: in vivo, Avena fatua; conditions: 10 days, 0 to 100 scale (0 no effect, 100 complete control)
Summary of the method: as §1

foxtail, giant [23] = assay: Test C postemergence; assay type: in vivo, Setaria faberi; conditions: 10 days, 0 to 100 scale (0 no effect, 100 complete control)
Source text: as §2

ducksalad = assay: Test D flooded paddy test; assay type: in vivo, Heteranthera limosa; conditions: 250 g ai/ha, applied to paddy water, visual rating after 13 to 14 days, scale 0 to 100 (0 no effect, 100 complete control)
Summary of the method: as §3

[24] = 500 g ai/ha, preemergence, 0 to 100 scale (0 no effect, 100 complete control)
[25] = Preemergence, 125 g ai/ha, 0 to 100 scale, 0 no effect, 100 complete control

Cc1ncn(-c2cc(C(=O)N3CC(C(F)(F)F)Oc4c(Cl)cccc43)ccn2)n1 (stereo not shown) [Compound 321]
Plant response rating, Soybean (soybean [1]; 500 g ai/ha, postemergence): 100
Plant response rating, Soybean (soybean [1]; Postemergence, 125 g ai/ha): 90
Plant response rating, Kochia (kochia [2]; 500 g ai/ha, postemergence): 80
Plant response rating, Kochia (kochia [2]; Postemergence, 125 g ai/ha): 60
Foxtail, Giant plant response rating (foxtail, giant [3]; [24]): 100
Plant response rating, Foxtail, Giant (foxtail, giant [3]; [25]): 100
Plant response rating, Rice (Flood) (rice): 0
Ryegrass, Italian plant response rating (ryegrass, Italian [4]; [24]): 100
Plant response rating, Ryegrass, Italian (ryegrass, Italian [4]; [25]): 90
Blackgrass plant response rating (blackgrass [5]; [24]): 90
Plant response rating, Blackgrass (blackgrass [5]; [25]): 80
Corn plant response rating (corn [6]; [24]): 40
Plant response rating, Corn (corn [6]; [25]): 10
Plant response rating, Sedge, Umbrella (Flood) (sedge, umbrella): 0
Barnyardgrass plant response rating (barnyardgrass [7]; [24]): 100
Plant response rating, Barnyardgrass (barnyardgrass [7]; [25]): 40
Wheat plant response rating (wheat [8]; [24]): 30
Plant response rating, Wheat (wheat [8]; [25]): 10
Plant response rating, Ryegrass, Italian (ryegrass, Italian [9]; 500 g ai/ha, postemergence): 80
Plant response rating, Ryegrass, Italian (ryegrass, Italian [9]; Postemergence, 125 g ai/ha): 60
Plant response rating, Ragweed (ragweed [10]; 500 g ai/ha, postemergence): 40
Plant response rating, Ragweed (ragweed [10]; Postemergence, 125 g ai/ha): 30
Oat, Wild plant response rating (oat, wild [11]; [24]): 80
Plant response rating, Oat, Wild (oat, wild [11]; [25]): 0
Plant response rating, Barnyardgrass (barnyardgrass [12]; 500 g ai/ha, postemergence): 90
Plant response rating, Barnyardgrass (barnyardgrass [12]; Postemergence, 125 g ai/ha): 20
Plant response rating, Pigweed, Palmer (pigweed, palmer [13]; 500 g ai/ha, postemergence): 60
Plant response rating, Pigweed, Palmer (pigweed, palmer [13]; Postemergence, 125 g ai/ha): 10
Plant response rating, Galium (galium; 500 g ai/ha, postemergence): 100
Plant response rating, Galium (galium; Postemergence, 125 g ai/ha): 100
Plant response rating, Corn (corn [14]; 500 g ai/ha, postemergence): 90
Plant response rating, Corn (corn [14]; Postemergence, 125 g ai/ha): 50
Soybean plant response rating (soybean [15]; [24]): 40
Plant response rating, Soybean (soybean [15]; [25]): 0
Ragweed plant response rating (ragweed [16]; [24]): 80
Plant response rating, Ragweed (ragweed [16]; [25]): 0
Pigweed, Palmer plant response rating (pigweed, palmer [17]; [24]): 100
Plant response rating, Pigweed, Palmer (pigweed, palmer [17]; [25]): 50
Plant response rating, Horseweed (horseweed; 500 g ai/ha, postemergence): 0
Plant response rating, Horseweed (horseweed; Postemergence, 125 g ai/ha): 0
Plant response rating, Blackgrass (blackgrass [18]; 500 g ai/ha, postemergence): 90
Plant response rating, Blackgrass (blackgrass [18]; Postemergence, 125 g ai/ha): 60
Plant response rating, Wheat (wheat [19]; 500 g ai/ha, postemergence): 80
Plant response rating, Wheat (wheat [19]; Postemergence, 125 g ai/ha): 20
Kochia plant response rating (kochia [20]; [24]): 90
Plant response rating, Kochia (kochia [20]; [25]): 20
Plant response rating, Barnyardgrass (Flood) (barnyardgrass [21]): 0
Plant response rating, Oat, Wild (oat, wild [22]; 500 g ai/ha, postemergence): 90
Plant response rating, Oat, Wild (oat, wild [22]; Postemergence, 125 g ai/ha): 10
Plant response rating, Foxtail, Giant (foxtail, giant [23]; 500 g ai/ha, postemergence): 90
Plant response rating, Foxtail, Giant (foxtail, giant [23]; Postemergence, 125 g ai/ha): 70
Plant response rating, Ducksalad (Flood) (ducksalad): 0

— patent US20260262643A1, “HERBICIDAL BENZOXAZINES” (FMC CORPORATION, priority 2022, published 2026)
